According to the METLIN SMRT retention time set (Domingo-Almenara et al. 2019):

Assay: gradient 5% acetonitrile 3 min, to 50% in 2 min, to 85% in 15 min, held 3 min, 100 µL/min
Details: column: Zorbax Extend-C18 2.1 x 50 mm; eluents: water / acetonitrile, 0.1% formic acid
Summary of the method: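 Retention times come from adduct peaks that were picked computationally and then checked by hand. The standards, pure and pooled in mixtures of ~100 molecules, were run on a Zorbax Extend-C18 column (2.1 × 50 mm, 1.8 μm) at 100 μL/min with water and acetonitrile, each with 0.1% formic acid. Detection was by quadrupole time-of-flight mass spectrometry in positive and negative ionization mode, with a dead volume of 40 μL and a dwell volume of 900 μL.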

Row | Structure (SMILES) | RP-LC retention time [s]
1 | COCCN1C(=O)c2ccccc2C(C(=O)NCc2ccccc2F)C12CCCCC2 (stereo not given) | 877
2 | CC(C)CCNC(=O)c1nn(-c2ccc(F)cc2)nc1CO | 984
3 | COc1cc(OC)cc(N2C(=O)C3N=NN(Cc4nc(-c5ccccc5Cl)no4)C3C2=O)c1 (stereo not given) | 967
4 | CN(C)S(=O)(=O)N1CC(c2nc(Cc3cccnc3)no2)C1 | 543
5 | O=C(C1=CN(c2ccc(F)c(Cl)c2)c2ccccc2S1(=O)=O)N1CCCC1 | 817
6 | CCNc1nc(C)cc(N2CCN(S(=O)(=O)c3cccc(C)c3)CC2)n1 | 708
7 | O=c1c2c([nH]c3ccc(Cl)cc13)CCN(Cc1ccc(F)cc1)C2 | 620
8 | COC(=O)c1cnc2nc(C)ccc2c1Nc1cccc(Cl)c1 | 705
9 | O=C(Nc1ccc2c(c1)OCO2)C(=O)c1cn(CC(=O)N2CCCCC2)c2ccccc12 | 1000
10 | Cc1coc2c(C)c3oc(=O)c(CCC(=O)NCCc4ccc(S(N)(=O)=O)cc4)c(C)c3cc12 | 828
11 | CCOC(=O)c1ccc(NC(=O)c2cc3c(=O)n(CC(C)C)c4ccccc4n3n2)cc1 | 750
12 | Cc1ccc(C)c(C(=O)CC2(O)C(=O)N(C)c3ccccc32)c1 (stereo not given) | 818
13 | Cn1cccc1CN(C(=O)c1ccc(F)cc1Cl)C1CC1 | 915
14 | CCCn1cnc2cc(CNC(=O)c3cccc(C(F)(F)F)c3)ccc21 | 690
15 | Cc1cc(C(=O)N2CC(n3cc(COc4ccc(F)cc4)nn3)C2)n(C)n1 | 637
16 | COc1ccc(OC)c2sc(NCc3ccccn3)nc12 | 585
17 | CCCNc1nccn(C(C)C)c1=O | 544
18 | O=C(Nc1cccc2ccc(-n3ccnc3)nc12)c1ccccc1C(F)(F)F | 638
19 | Cc1oc(-c2[nH]ncc2C(=O)N(C)C)cc1S(=O)(=O)Nc1ccc(Cl)cc1 | 703
20 | O=C(NCCc1csc(C2CCN(C(=O)C3CCCCC3)CC2)n1)C1CC1 | 734
21 | Cc1nc(CCNC(=O)C2CCN(S(=O)(=O)c3ccc(Br)s3)CC2)cs1 | 759
22 | Cn1c(N2CCN(C(=O)COc3ccc(Cl)cc3)CC2)cc(=O)n(C)c1=O | 666
23 | Cc1cc(C)cc(NC(=O)C2CC(=O)N(c3n[nH]c4cccc(F)c34)C2)c1 (stereo not given) | 770

Row | Structure (SMILES) | RP-LC retention time [s]
24 | Cc1ccc(NC(=O)N2CCCC2c2c(C)noc2C)c(Cl)c1 (stereo not given) | 872
25 | Cc1ccc(-n2c(N3CCCC(C(=O)Nc4ccc(Cl)cc4)C3)nc3ccsc3c2=O)cc1 (stereo not given) | 1080
26 | Cc1cnn(Cc2nc(-c3ccc(NC(=O)c4ccsc4)cc3)oc2C)c1 | 876
27 | CCc1nc(-c2csc(S(=O)(=O)N3CCC(C(=O)Nc4cccc(C#N)c4)CC3)c2)no1 | 966
28 | CC(NC(=O)C1CCN(c2cncnc2N2CCOCC2)CC1)c1ccccn1 (stereo not given) | 547
29 | COc1ccc(Cl)cc1NC(=O)c1coc(NC(=O)C2CC2)n1 | 770
30 | COCc1cc(=O)n(CC(=O)Nc2cc(F)ccc2F)c(N2CCOCC2)n1 | 838
31 | CCn1nc(C)c(S(=O)(=O)N2CCN(C(=O)C(C)Oc3ccccc3)CC2)c1C (stereo not given) | 780
32 | COc1ccc(NC(=O)C2=C(C)NC(=O)NC2c2ccccc2Br)c(OC)c1 (stereo not given) | 698
33 | Cc1nn(C)c(C)c1CNC(=O)CN1C(=O)C2CCCCN2c2ccc(C(=O)N3CCCC3)cc21 (stereo not given) | 654
34 | COc1cc(C2C(C(=O)N3CCCCC3)=C(C)NC3=C2C(=O)CCC3)ccc1OC(C)=O (stereo not given) | 647
35 | O=C(c1ccco1)N1CCC(Cc2nnc(-c3ccccc3)o2)CC1 | 749
36 | CCC1=NS(=O)(=O)c2cccnc2N1c1ccc(F)c(C)c1 | 897
37 | COc1ccc(CNC(=O)c2cc3sccc3n2Cc2ccc(F)cc2)cc1 | 1080
38 | COc1ccc(Cl)c2c(=O)c3c([nH]c12)CCN(CC(=O)Nc1ccccc1)C3 | 617
39 | Nc1ccc(S(=O)(=O)NCC2CCCCO2)cc1 (stereo not given) | 733
40 | CCc1noc(NC(C)=O)c1-c1ccc(OC)c(S(=O)(=O)Nc2ccc(C)cc2Cl)c1 | 894
41 | COc1ncc(C(=O)Nc2ccc(F)c(Cl)c2)c(C)n1 | 825
42 | O=C(NCC#CCN1CCc2ccccc2C1)Nc1cccs1 | 557
43 | Cc1nncn1C1CCN(S(=O)(=O)c2ccc(C(C)C)cc2)CC1 | 674
44 | O=C(NC1CCN(Cc2ccccc2)CC1)c1csc(-c2ccc(N3CCCC3)nc2)n1 | 565
45 | O=C(CCc1ccccc1)Nc1c(-c2ccc(F)cc2)nc2ccccn12 | 687
46 | O=c1c2c(nc(SCc3ccccn3)n1CCc1ccccc1)CCS2 | 657

Row | Structure (SMILES) | RP-LC retention time [s]
47 | Cc1nc(-c2csc(S(=O)(=O)N3CCC(C(=O)NC4CCCCCCC4)CC3)c2)no1 | 995
48 | O=C(NCCN1CCOCC1)c1cc2cc(Cl)ccc2o1 | 558
49 | N#Cc1ccccc1Cn1cnc2nc3c(cc2c1=O)CCCC3 | 733
50 | Cc1ccc(NC(=O)Cn2c(=O)n(-c3ccccc3)c3ncccc32)cc1 | 840
51 | O=C(c1cccc(Cl)c1)N1CCN(c2cc(-c3ccc(Cl)cc3)[nH]n2)CC1 | 917
52 | O=C1CC(c2cc(F)cc(F)c2)Cc2nc(N3CCN(c4ccccc4F)CC3)ncc21 (stereo not given) | 1300
53 | COc1ccc(Nc2nc(N3CCN(c4ccc(F)cc4)CC3)nc3n[nH]nc23)cc1 | 840
54 | COc1c(C(=O)NC2CCCC2)sc2cccc(F)c12 | 1100
55 | COc1ccc(-c2cn3c(CC(=O)Nc4ccc(Br)cc4F)csc3n2)cc1OC | 821
56 | COc1ccccc1-c1noc(C2CCCN2C(=O)Nc2cc(C)ccc2C)n1 (stereo not given) | 906
57 | CN1C(=O)CCc2cc(NS(=O)(=O)Cc3ccc(Cl)cc3)ccc21 | 788
58 | O=S(=O)(Nc1ccc(Cn2cncn2)cc1)c1cc(F)cc(F)c1 | 708
59 | O=[N+]([O-])c1cccc(/C=C/c2ccccn2)c1 | 747
60 | COc1ccccc1-c1noc(CCn2nc(-c3ccc(F)cc3)ccc2=O)n1 | 863
61 | Cc1ccc(CN2CC(COc3cccnc3)C3(CCOCC3)C2)c(C)c1 (stereo not given) | 591
62 | Cn1cc(C(=O)NCCC2=CCCCC2)c2nn(-c3ccccc3)c(=O)c-2c1 | 991
63 | O=C(C1CCN(c2ncccc2-c2nc(-c3ccccc3)no2)CC1)N1CCOCC1 | 839
64 | CC(NC(=O)C1CCN(S(=O)(=O)c2ccc(C#N)cc2)CC1)C(=O)N1CCCc2ccccc21 (stereo not given) | 690
65 | COCCNc1nc(-c2ccc([N+](=O)[O-])cc2)nc2ccccc12 | 696
66 | O=S(=O)(c1cccs1)N1CCc2nc(-c3ccccc3)ncc2C1 | 992
67 | CC1CCCN(S(=O)(=O)c2cc(C(=O)Nc3ccc(F)c(Cl)c3)n(C)c2)C1 (stereo not given) | 1170
68 | CCN(CC)CCNC(=O)c1ccnc(-c2cccs2)c1 | 597
69 | CNC(=O)c1ccc(-c2nc3cc(NS(=O)(=O)c4ccccc4F)ccc3n2C)cc1 | 616

Row | Structure (SMILES) | RP-LC retention time [s]
70 | CCn1cc(CCNC(=O)c2ccccc2Br)c2cccnc21 | 700
71 | CCOc1ccc(-c2[nH]ncc2CNS(=O)(=O)c2ccc(NC(C)=O)cc2)cc1 | 702
72 | CCn1cnc(S(=O)(=O)N2CCC(C(=O)Nc3ccc(OC)c(OC)c3)CC2)c1 | 704
73 | COc1ccccc1N1CCN(C(=O)c2cccc([N+](=O)[O-])c2)CC1 | 786
74 | CSc1cccc(NC(=O)Cn2c(=O)cc(-c3nc(C4CC4)no3)c3ccccc32)c1 | 686
75 | COc1ccc(N2CC(c3noc(-c4cc(OC)c(OC)c(OC)c4)n3)CC2=O)cc1OC (stereo not given) | 813
76 | CCCn1cc(CCNC(=O)c2cncc(Br)c2)c2cccnc21 | 723
77 | Cc1ccc(C)c(N2C(=O)CN(S(=O)(=O)c3ccccc3)CC2(C)C(=O)NC2CCCC2)c1 (stereo not given) | 991
78 | CC(C)CN1C(=O)c2cccn2CC1C(=O)NCC1CC1 (stereo not given) | 731
79 | CC1(C)C(=O)N(CC(=O)NCc2ccccc2Cl)c2ccccc21 | 881
80 | NC(=O)CSc1nnc(-c2cccc(Cl)c2)o1 | 696
81 | CCc1nc2ccccc2c(=O)n1Cc1noc(-c2cncc(Br)c2)n1 | 896
82 | O=C(CSc1ccc(NC(=O)c2cccs2)nn1)Nc1cccc(Cl)c1Cl | 942
83 | Cc1ccc(C)c(S(=O)(=O)N2CCC(c3noc(COCC4CC4)n3)CC2)c1 | 1100
84 | CCc1ccc(N2C(=O)CN(S(C)(=O)=O)CC2(C)C(=O)NCc2ccc(C)cc2)cc1 (stereo not given) | 898
85 | CCOC(=O)c1ccc(Nc2ncnc3c2cnn3C)cc1 | 817
86 | O=C1NCCCn2cc(S(=O)(=O)N3CCN(c4ccccn4)CC3)cc21 | 550
87 | Cc1ccc(-c2noc(C3CC3)n2)cc1S(=O)(=O)N1CCC(C(=O)NC2CC2)CC1 | 836
88 | COc1ccc(S(=O)(=O)NCc2ccc3c(c2)CCN3C(=O)C(C)C)cc1 | 861
89 | CCn1nc(C)c2ccnc(N3CCC(C(=O)N4CCN(c5ccccc5Cl)CC4)CC3)c21 | 812
90 | COCC(=O)NCC12CCCC=C1NC(=O)CC2 (stereo not given) | 605
